Experimental data from patent US10603357B2, “Therapeutic TREM-1 peptides” (Universite de Lorraine, priority 2004, dated 2020).
Marks after values point to notes of the source that are not given here.

Tests used:
BALB/c mice = assay: LPS-induced endotoxaemia, survival of mice (Example 1); format: in vivo, mouse; settings: for animals alive 7 days after LPS injection: 200 μl of 300 μM peptide i.p. 1 hour before 200 μg LPS i.p., 10 mice per group (FIG. 2, 3); for protection (survival) from LPS: 4 hours after LPS (FIG. 4)
Protocol: BALB/c mice (10 per group) were injected intraperitoneally with 200 μg LPS. The TREM-1 peptides P1, P2, P3, or P5 (200 μl of a 300 μM solution per mouse) were injected intraperitoneally 1 hour before LPS. Viability of mice was monitored twice a day for 7 days. Statistical analysis was performed by Logrank test. Data from control mice represent cumulative survival curves from two independent experiments performed under identical conditions.
BALB/c mice (10 per group) were injected intraperitoneally with 200 μg LPS. TREM-1 peptide P1, 200 μl of a 300 μM solution per mouse was injected intraperitoneally 1 hour before or 4 hours after LPS. Viability of mice was monitored twice a day for 7 days. Statistical analysis was performed with the Logrank test. Data from control mice represent cumulative survival curves from two independent experiments performed under identical conditions
BALB/c mice (10 per group) were injected intraperitoneally with 200 μg LPS. P1 peptide, 200 μl of a 150, 300 and 600 μM solution per mouse (dots) or P3, 200 μl of a 600 μM solution per mouse (filled squares) were injected intraperitoneally 4 hours after LPS. Viability of mice was monitored twice a day for 7 days. Statistical analysis was performed with the Logrank test
In the experiments of this example, the peptides were administered in a volume of 200 μl of the solution molarity indicated. To assess the ability of TREM1-peptides to protect mice from LPS-induced endotoxaemia, the Inventors administered peptides P1, P2, P3 and P5 (300 μM) 1 hour before a lethal dose of lipopolysaccharide (LPS) (FIG. 2). Lethality was monitored over time and compared with animals that had received control injections of vehicle alone. P5 injection confers maximal protection, with 90% of the animals still alive 7 days after LPS injection, as compared with 10% of control mice (p<0.001). 60% of the P1-treated mice and 50% of the P2 treated mice survived endotoxaemia as compared with 10% of control mice (p<0.01 and p<0.05 respectively).
In order to investigate whether TREM-1 peptide treatment could be delayed until after the administration of LPS, the Inventors injected the peptides at 4 hours after LPS injection. […] 80% of the mice injected with P1 4 hours after LPS survived endotoxaemia compared to 60% of mice treated 1 h before LPS and 10% of mice treated with vehicle alone (p<0.001 and p<0.01 respectively). Thus, P1 is effective even when injected after the outbreak of endotoxaemia. […] P1 administration conferred maximal protection (80%) when administered at 600 μM (p<0.01) and the level of protection dropped to 50% at 300 μM (p<0.05) and further down to 30% at 150 μM as compared to 20% of control mice, indicating a dose dependent effect of P1 (FIG. 4). The Inventors then investigated whether P1 protects against septic shock in the “CLP” model (Cecal Ligation and Puncture is a widely used experimental model of sepsis). Mice treated with two doses of P1 at 5 and 24 hours after CLP were protected from death as compared to control treated mice (p=0.0791) although the difference was not statistically significant. 40% of the mice injected with P1 at 5 days after CLP survived compared to 5% of mice treated with P3 peptide.

[1] = system: TREM-1/TREM-1 ligand interaction; assay: competition of soluble mouse TREM-1/IgG1 binding to TREM-1 ligand positive peritoneal exudate cells (flow cytometry); settings: peptides 100 and 500 μM, pre-incubated 45 minutes on ice; 2 μg/ml mouseTREM-1/hIgG1
Protocol: Cytofluorimetric analysis of peritoneal exudate cells with 2 μg/ml of mouseTREM-1/hIgG1 in the presence of a 500 μM solution per mouse (thin line), 100 μM solution per mouse (dotted line) or absence (thick line) of the peptides is shown. The grey histogram represents immunostaining with human IgG1 as a control.
A possible mechanism of action could be the ability of TREM-1 derived peptide to interfere with TREM-1/TREM-1 ligand interaction. To address this question the Inventors performed competition experiments on TREM-1 ligand positive cells: PEC (Peritoneal Exudate Cells) from CLP treated mice.
Peritoneal exudate cells (PEC) from mice suffering from a caecal ligation and puncture (CLP)-induced peritonitis were subjected to flow cytometry analysis after incubation with a PE-conjugated anti-human IgG1 (Jackson Immunoresearch, Bar Harbor, USA). Competition with TREM-1 peptides was performed by pre-incubating cells with the indicated concentrations of peptides for 45 minutes on ice before adding mTREM-1-IgG1.

rats = assay: CLP polymicrobial sepsis model in rats, haemodynamic and biological measurements; format: in vivo, rat; settings: for effect on TNF-α production: CLP (FIG. 16); for Aortic blood flow / Bicarbonate / Heart Rate / Lactate / Mesenteric blood flow / pH: CLP polymicrobial sepsis; for decline in arterial pressure over time: H16 to H24 (FIG. 15)
Protocol: The procedure has been described in details elsewhere (see Mansart, A. et al. Shock 19:38-44 (2003)). Briefly, rats (n=6-10 per group) were anesthetized by i.p. administration of ketamine (150 mg/kg). The caecum was exposed through a 3.0-cm abdominal midline incision and subjected to a ligation of the distal half followed by two punctures with a G21 needle. A small amount of stool was expelled from the punctures to ensure […]. The caecum was replaced into the peritoneal cavity and the abdominal incision closed in two layers. After surgery, all rats were injected s.c. with 50 mL/kg of normal saline solution for fluid resuscitation. TREM-1 or scrambled peptides were then administered as above.
Immediately after LPS administration as well as 16 hours after CLP, arterial BP (systolic, diastolic, and mean), heart rate, abdominal aortic blood flow, and mesenteric blood flow were recorded using a procedure described elsewhere (see Mansart, A. et al. Shock 19:38-44 (2003)). Briefly, the left carotid artery and the left jugular vein were cannulated with PE-50 tubing. Arterial BP was continuously monitored by a pressure transducer and an amplifier-recorder system (IOX EMKA Technologies, Paris, France). Perivascular probes (Transonic Systems, Ithaca, N.Y.) wrapped up the upper abdominal aorta and mesenteric artery, allowed to monitor their respective flows by means of a flowmeter (Transonic Systems). After the last measurement (4th hour during LPS experiments and 24th hour after CLP), animals were sacrificed by an overdose of sodium thiopental i.v.
Blood was sequentially withdrawn from the left carotid artery. Arterial lactate concentrations and blood gases analyses were performed on an automatic blood gas analyser (ABL 735, Radiometer, Copenhagen, Denmark). Concentrations of TNF-α and IL-1β in the plasma were determined by an ELISA test (Biosource, Nivelles, Belgium) according to the recommendations of the manufacturer. Plasmatic concentrations of nitrates/nitrites were measured using the Griess reaction (R&D Systems, Abingdon, UK).

| Sequence | animals alive 7 days after LPS injection (BALB/c mice) [%] | inhibition of TREM-1 interaction with its ligand (mTREM-1/IgG1 binding to PEC) [1] | effect on TNF-α production (rats) | Aortic blood flow (rats; H16) [mL/min] | Bicarbonate (rats; H16) [mmol/L] | Heart Rate (rats; H16) | Lactate (rats; H16) | Mesenteric blood flow (rats; H16) | pH (rats; H16) | Aortic blood flow (rats; H20) | Bicarbonate (rats; H20) | Heart Rate (rats; H20) | Lactate (rats; H20) | Mesenteric blood flow (rats; H20) | pH (rats; H20) | Aortic blood flow (rats; H24) | Bicarbonate (rats; H24) | Heart Rate (rats; H24) [bpm] | Lactate (rats; H24) | Mesenteric blood flow (rats; H24) | further results |
| --- | --- | --- | --- | --- | --- | --- | --- | --- | --- | --- | --- | --- | --- | --- | --- | --- | --- | --- | --- | --- | --- |
| LQVTDSGLYRCVIYHPP [P5] | 90 | inhibit TREM-1 interaction with its ligand in a dose dependent manner | decrease | 41 ± 14 | 18.6 ± 2.0 | 460 ± 17^b bpm | 3.3 ± 0.4^b mmol/L | 15.3 ± 3.5^b mL/min | 7.35 ± 0.01^b | 31 ± 5^b mL/min | 18.0 ± 0.9^a mmol/L | 500 ± 17^b bpm | 3.6 ± 0.9^b, c mmol/L | 11.0 ± 6.9^b, c mL/min | 7.34 ± 0.01^b | 28 ± 8^b mL/min | 17.1 ± 0.9^a, c mmol/L | 510 ± 20 | 4.9 ± 1.1^b, c mmol/L | 8.5 ± 3.5^b, c mL/min | pH (rats; H24): 7.36 ± 0.01^b, c; decline in arterial pressure over time (rats; CLP): almost totally abolished; plasmatic TNF-α (rats; CLP, by H20 (FIG. 16)): almost undetectable |
| LVVTQRPFTRPSEVHMGKFTLKH (listed as Mus musculus) [P1] | 60 | inhibit TREM-1 interaction with its ligand in a dose dependent manner | decrease | 41 ± 12 | 16.8 ± 4.4 | 462 ± 16^a bpm | 4.9 ± 0.4 mmol/L | 13.5 ± 7.2 mL/min | 7.32 ± 0.04 | 28 ± 17^a mL/min | 16.0 ± 5.4^b mmol/L | 480 ± 30^a bpm | 5.3 ± 1.1^a, c mmol/L | 5.3 ± 3.0^c mL/min | 7.31 ± 0.18^a | 22 ± 16^a mL/min | 11.2 ± 0.8^c mmol/L | 420 ± 30 | 6.8 ± 0.9^a, c mmol/L | 4.5 ± 2.1^c mL/min | protection (survival) from LPS (BALB/c mice; 200 μl of 150 μM): 30%; protection (survival) from LPS (BALB/c mice; 200 μl of 300 μM): 50%; protection (survival) from LPS (BALB/c mice; 200 μl of 600 μM): 80%; late death over one week (BALB/c mice; delayed treatment after LPS): No late death occurred; mice surviving endotoxaemia (BALB/c mice; peptide 300 μM injected 4 hours after LPS (FIG. 3)): 80%; pH (rats; H24): 7.24 ± 0.06^a, c; decline in arterial pressure over time (rats; CLP): almost totally abolished |
